From patent US20260132115A1, “SUBSTITUTED 3-FLUOROBENZENEPROPANOATE COMPOUND AND PREPARATION METHOD THEREFOR, PHARMACEUTICAL COMPOSITION THEREOF, AND USE THEREOF” (TIANJIN GUDUI BIO-PHARM CO., LTD., priority 2022, published 2026)
Where two headings read alike, the source gives them in different places. Marks after values point to notes of the source that are not given here.

How the values were obtained:
[1] = system: λ-Carrageenan-Induced Rat Toe Swelling; assay: Anti-inflammatory effect on λ-carrageenan-induced rat toe swelling; format: in vivo, SD rats; settings: 10 mg/kg intraperitoneal, 1 h before 1% λ-carrageenan; for inhibition in vivo at 10 mg/kg: Rattus norvegicus, ip
Method: Experimental method: Male SD rats weighing 150-160 g were randomly grouped, with 10 rats in each group. The rats were intraperitoneally injected with saline, the compounds of the present disclosure, and the control drug flurbiprofen or flurbiprofen axetil respectively, all of which were administered at a dose of 10 mg/kg and a dosing volume of 10 μL/g. At 1 h after administration, 100 μL of 1% λ-carrageenan was injected into the right hind toe of each rat to induce inflammation. Afterwards, the paw volume was measured every 1 h using a paw volume meter to calculate the swelling inhibition rate.

[2] = system: Dry Yeast-Induced Rat Fever Models; assay: Antipyretic effect on dry yeast-induced fever in rats; format: in vivo, SD rats; settings: rectal temperature, 10 mg/kg intraperitoneal, 20 min before 20% dry yeast s.c.
Method: Experimental method: Male SD rats, aged 4 weeks, were randomly grouped, with 10 rats in each group. […] The rats were intraperitoneally injected with saline, the compounds of the present disclosure or the control drug flurbiprofen respectively, all of which were administered at a dose of 10 mg/kg and a dosing volume of 10 μL/g. At 20 min after administration, 20% active dry yeast suspension was injected subcutaneously. After modeling, the rectal temperatures were measured at 4 h and 8 h.

MM.1S = assay: Antitumor potency, MTT method, MM.1S; format: cell-based; settings: Homo sapiens, MM1.S, 72 h incubation
Method: (§1) Experimental method: The antitumor potency was tested by the MTT method. Tumor cells at the logarithmic phase were collected. The concentration of the cell suspension was adjusted. 100 μL of the cell suspension was added to each well. Cell plating was carried out and the cell density was adjusted to 1000 to 10000/well (the marginal wells were filled with sterile PBS). The cells were incubated at 5% CO2 and 37° C. until the cells adhered to the wall (96-well flat-bottomed plate). Drugs of different concentration gradients were added, 100 μL per well. Four replicates were set up. Under the conditions of 5% CO2 and 37° C., the cells were incubated for 72 h and observed under an inverted microscope. The prepared MTT solution (5 mg/mL) was added to the 96-well plate, 20 μL per well, mixed well, and incubated for 4 h under the conditions of 37° C. and 5% CO2. Afterwards, the liquid in the plate was discarded. 150 μL of DMSO was added to each well and oscillated for 3 min on a microplate reader. The OD value (optical density) was detected at 490 nm.
(§2) The inhibition rate of the drug against the tumor cell growth was calculated according to the following formula: […]

Eca-109 = assay: Antitumor potency, MTT method, Eca-109; format: cell-based; settings: Homo sapiens, 72 h incubation
Method: as §1, §2

H460 = assay: Antitumor potency, MTT method, H460; format: cell-based; settings: Homo sapiens, NCI-H460, 72 h incubation
Method: as §1, §2

NUGC-4 = assay: Antitumor potency, MTT method, NUGC-4; format: cell-based; settings: Homo sapiens, 72 h incubation
Method: as §1, §2

U251 = assay: Antitumor potency, MTT method, U251; format: cell-based; settings: Homo sapiens, U-251, 72 h incubation
Method: as §1, §2

rats with CIA = assay: Analgesic and anti-inflammatory effects on collagen-induced rheumatoid arthritis (CIA) in rats; format: in vivo, Lewis rats; settings: for paw volume effect as compared to the flurbiprofen group: left hind limb, 14-day intervention, 10 mg/kg (FIG. 3); for MWT effect as compared to the flurbiprofen group: left lower limb, 13-day intervention, 10 mg/kg (FIG. 4)
Method: Experimental method: Female Lewis rats, aged 6-8 weeks, were randomly grouped, with 8 rats in each group. Under the ambient temperature of 20.5° C. to 24.5° C. and the humidity of 40% to 70%, the light period was 12-h bright and 12-h dark. Type II collagen was mixed with Freund's incomplete adjuvant (IFA) at a ratio of 1:1 and fully emulsified on ice before use. 100 μL of the mixed solution was injected intradermally at the part 2 to 3 cm from the base of the rat tail, and 50 μL of the mixed solution was injected into the bases of both hind limbs separately. The rats in the blank control group were injected with an equal volume of saline. IFA was used for re-immunization 7 days later. […] Rats with a total score of more than 2 on both hind limbs were selected and randomly divided into a model group, a flurbiprofen group, a compound 33 group, a compound 2 group, a compound 13 group, a compound 20 group, and a compound 35 group according to the body weight, score and paw volume, and furthermore a blank control group was set up, with 8 rats in each group. The dosing […] was […], and the dosing time was 14 days. A corresponding volume of solvent was administered in the model group and the blank control group.
Test indicators: body weight, arthritis score, hind limb paw volume, and mechanical foot threshold (MWT).
Standard for arthritis score: 0=normal; 1=erythema and slight swelling observed at the ankle joint; 2=erythema and slight swelling observed from the ankle joint to the metatarsal joint or the metacarpal joint; 3=erythema and moderate swelling observed from the ankle joint to the metatarsophalangeal joint or the metacarpal joint; 4=erythema and severe swelling observed from the ankle joint to the metatarsal joint; the total score of all (four) paws was calculated, and the sum of the arthritis indices was up to 16 per rat.

U87 = assay: Antitumor potency, MTT method, U87; format: cell-based; settings: Homo sapiens, U-87 MG, 72 h incubation
Method: as §1, §2

[3] = In vivo pharmacokinetic assay in rats (gavage, plasma); settings: female, Sprague Dawley, po, prototype drug in rat plasma, dose equimolar to 50 mg/kg flurbiprofen
Method: Experimental method: Adult female Sprague Dawley rats, aged 8-10 weeks and weighing 200±20 g, were randomly grouped, with 3 rats in each group. Rats in each of the groups were administered by gavage at a dose of 50 mg/kg of flurbiprofen and an equimolar dose of other example compounds to 50 mg/kg of flurbiprofen, respectively. After gavage administration, blood was collected at 0.0833 […], and 24 h into sodium heparin anticoagulant tubes, respectively. The blood was collected by the following method: 250 μL of blood were collected from the orbital venous plexuses of the rats. After blood collection, the blood samples were centrifuged at 12000 rpm in a centrifuge for 5 min. All plasma was aspirated into a 1.5-mL centrifuge tube, and the plasma was stored in a refrigerator at -80° C. The pharmacokinetic parameters were determined by the external standard curve method. Sample processing: after the cryopreserved samples were removed and restored to room temperature, the samples were vortexed evenly and then diluted two folds with methanol; the sample solution was diluted 5 folds by adding a mixed extractant of 0.5% formic acid-containing acetonitrile:methanol=7:3, and subjected to vortex oscillation for 1 min. Subsequently, the resultant was centrifuged at 4° C. and 12000 rpm for 10 min, and then 5 μL of the supernatant was measured for assay. The pharmacokinetic parameters in the Examples were calculated using the Winnonlin software.

[4] = 6 h, read-out: Toe Swelling Inhibition Rate at 6 h
[5] = 24 h, read-out: Toe Swelling Inhibition Rate at 24 h

Molecule	inhibition in vivo at 10 mg/kg [1, 4]	inhibition in vivo at 10 mg/kg [1, 5]	Temp. at 4 h After Dosing [2]	Temp. at 8 h After Dosing [2]	other results
CC(C(=O)OCc1ccccc1O)c1ccc(-c2ccccc2)c(F)c1 (stereo not shown) [Compound 48]	44.1%	33.9%	37.11 ± 0.23 °C	37.21 ± 0.25 °C	
C[C@H](C(=O)OCOC(=O)N1CCC(O)CC1)c1ccc(-c2ccccc2)c(F)c1 [Compound 31]	45.4%	31.9%	37.12 ± 0.30 °C	37.22 ± 0.30 °C	
CC(C(=O)OCOC(=O)CCCCCN1C(=O)C=CC1=O)c1ccc(-c2ccccc2)c(F)c1 (stereo not shown) [Compound 53]	69%	75.2%	37.04 ± 0.20 °C	37.02 ± 0.30 °C	
CC(C(=O)OCOC(=O)N1CCC(O)CC1)c1ccc(-c2ccccc2)c(F)c1 (stereo not shown) [Compound 20]	52.7%	45%	37.09 ± 0.25 °C	37.27 ± 0.26 °C	IC50 (MM.1S): 42.8 µM; IC50 (Eca-109): 33.2 µM; IC50 (H460): 35.9 µM; IC50 (NUGC-4): 50.4 µM; IC50 (U251): 5.84 µM; paw volume effect as compared to the flurbiprofen group (rats with CIA): better effects; MWT effect as compared to the flurbiprofen group (rats with CIA): slightly better or better effects; IC50 (U87): 54.6 µM
CC(C(=O)OCOC(=O)N1C[C@@H](C)O[C@@H](C)C1)c1ccc(-c2ccccc2)c(F)c1 (stereo partly shown) [Compound 3]	45.3%	28.1%			
CC(C(=O)OCOC(=O)c1ccc(O)cc1)c1ccc(-c2ccccc2)c(F)c1 (stereo not shown) [Compound 35]	54.6%	49.8%	37.15 ± 0.21 °C	37.29 ± 0.30 °C	IC50 (MM.1S): 45.7 µM; IC50 (Eca-109): 29.6 µM; IC50 (H460): 32.6 µM; IC50 (NUGC-4): 41.8 µM; IC50 (U251): 7.33 µM; paw volume effect as compared to the flurbiprofen group (rats with CIA): better effects; MWT effect as compared to the flurbiprofen group (rats with CIA): slightly better or better effects; IC50 (U87): 60.3 µM
CC(=O)Oc1ccccc1C(=O)OCOC(=O)C(C)c1ccc(-c2ccccc2)c(F)c1 (stereo not shown) [Compound 36]	45.3%	28.1%	37.38 ± 0.31 °C	37.24 ± 0.16 °C	
CC(C(=O)O)c1ccc(-c2ccccc2)c(F)c1 (stereo not shown) [Flurbiprofen, reference compound]	35.5%	29.9%	37.49 ± 0.43 °C	37.67 ± 0.39 °C	IC50 (MM.1S): > 100 µM; IC50 (Eca-109): 85.5 µM; IC50 (H460): > 100 µM; IC50 (NUGC-4): > 100 µM; IC50 (U251): 34.1 µM; IC50 (U87): > 100 µM
CC(C(=O)OCOC(=O)N(CCO)CCO)c1ccc(-c2ccccc2)c(F)c1 (stereo not shown) [Compound 25]					AUC [3]: 63000 ± 11800 ng·h/mL; Cmax [3]: 3860 ± 178 ng/mL; half-life ([3]; read-out: Prototype Drug t1/2 (converted)): 8.1 ± 4.42 h
CC(C)CN(CC(C)C)C(=O)OCOC(=O)C(C)c1ccc(-c2ccccc2)c(F)c1 (stereo not shown) [Compound 69]	65.9%	70.6%	37.09 ± 0.18 °C	37.13 ± 0.27 °C	
CCCN(CCC)C(=O)OCOC(=O)[C@@H](C)c1ccc(-c2ccccc2)c(F)c1 [Compound 29]	45.8%	29.6%	37.12 ± 0.13 °C	37.35 ± 0.23 °C	
CCCCN(CCCC)C(=O)OCOC(=O)C(C)c1ccc(-c2ccccc2)c(F)c1 (stereo not shown) [Compound 65]	43.1%	43.8%	37.10 ± 0.20 °C	37.24 ± 0.23 °C	
CC(C(=O)OCOC(=O)CCN1C(=O)CCC1=O)c1ccc(-c2ccccc2)c(F)c1 (stereo not shown) [Compound 55]	36.7%	41.4%			
CC(C(=O)OCOC(=O)N[C@@H](Cc1ccc(O)cc1)C(=O)O)c1ccc(-c2ccccc2)c(F)c1 (stereo partly shown) [Compound 7]	47.9%	21.5%			
CC(C(=O)OCOC(=O)c1ccc(N(C)C)cc1O)c1ccc(-c2ccccc2)c(F)c1 (stereo not shown) [Compound 41]	43%	32.2%	37.19 ± 0.35 °C	37.30 ± 0.31 °C	
Flurbiprofen axetil [reference compound]					Toe Swelling Inhibition Rate at 6 h ([1]; 6 h): 35.53%**; Toe Swelling Inhibition Rate at 24 h ([1]; 24 h): 22.85%**
COc1cc(COC(=O)C(C)c2ccc(-c3ccccc3)c(F)c2)cc(OC)c1 (stereo not shown) [Compound 47]	49.3%	33.9%	37.17 ± 0.27 °C	37.26 ± 0.22 °C	
CCCCCCN(C)C(=O)OCOC(=O)C(C)c1ccc(-c2ccccc2)c(F)c1 (stereo not shown) [Compound 67]	48.6%	57.3%	37.17 ± 0.19 °C	37.16 ± 0.20 °C	
CC(=O)N1CCN(C(=O)OCOC(=O)C(C)c2ccc(-c3ccccc3)c(F)c2)CC1 (stereo not shown) [Compound 15]			37.16 ± 0.16 °C	37.27 ± 0.24 °C	
CC(C(=O)OCOC(=O)CCCN1C(=O)C=CC1=O)c1ccc(-c2ccccc2)c(F)c1 (stereo not shown) [Compound 57]	43.8%	43.4%			
CC(OC(=O)C(C)c1ccc(-c2ccccc2)c(F)c1)OC(=O)N1CCOCC1 (stereo not shown) [Compound 9]			37.17 ± 0.23 °C	37.10 ± 0.37 °C	
